Experimental data: the NIST ThermoML archive (doi:10.1016/j.fluid.2014.06.024)

Test: molar heat capacity at constant pressure; xn = mol fraction of the nth substance listed
Conditions: 101 kPa, Liquid, Small sample (50 mg) DSC

Cc1ccccc1C [1,2-dimethylbenzene] + C1CCOCC1
molar heat capacity at constant pressure [J/K/mol]
Conditions | 298.15 K | 303.15 K | 308.15 K
x2 = 0.0918 | 184.41 | 186 | 187.56
x2 = 0.1317 | 183.03 | 184.64 | 186.23
x2 = 0.1765 | 181.48 | 183.1 | 184.72
x2 = 0.2108 | 180.29 | 181.92 | 183.55
x2 = 0.2543 | 178.76 | 180.4 | 182.06
x2 = 0.2876 | 177.59 | 179.23 | 180.91
x2 = 0.3105 | 176.77 | 178.42 | 180.11
x2 = 0.3651 | 174.81 | 176.47 | 178.18
x2 = 0.4187 | 172.86 | 174.53 | 176.26
x2 = 0.4498 | 171.71 | 173.38 | 175.13
x2 = 0.491 | 170.18 | 171.85 | 173.62
x2 = 0.5217 | 169.03 | 170.7 | 172.47
x2 = 0.5518 | 167.88 | 169.56 | 171.34
x2 = 0.5871 | 166.53 | 168.2 | 170
x2 = 0.6218 | 165.19 | 166.86 | 168.66
x2 = 0.6617 | 163.62 | 165.29 | 167.1
x2 = 0.6901 | 162.5 | 164.16 | 165.98
x2 = 0.7219 | 161.23 | 162.89 | 164.71
x2 = 0.7561 | 159.85 | 161.5 | 163.33
x2 = 0.7918 | 158.39 | 160.04 | 161.87
x2 = 0.8231 | 157.11 | 158.75 | 160.58
x2 = 0.8651 | 155.36 | 156.99 | 158.83
x2 = 0.8902 | 154.31 | 155.93 | 157.78
x2 = 0.9234 | 152.9 | 154.52 | 156.37
